According to patent US20110301236A1, “HeLa-C3 Apoptosis Inducer from Garcinia paucinervis” (priority 2010, published 2011):

Tests used:
Assay type in all cases: cell-based
HeLa-C3 cells [1] = test: Cell morphology changes of HeLa-C3 cells during compound treatment (FIG. 2)
Method: Refereeing to FIG. 2, Cell morphology changes during the course of compound treatment. HeLa-C3 cells were treated with compounds of 2 at 25 μM, an anticancer drug, pacilitaxel at 500 nM (serving as a positive control), and a control without any drug for 24, 48, and 72 h. Various cell morphologies were recorded at the indicated time points.

HeLa-C3 cells [2] = test: Apoptosis-inducing effect in HeLa-C3 cells (caspase-3 FRET biosensor, YFP/CFP emission ratio); details: for Apoptotic effect at 10 μM / Apoptotic effect at 25 μM / Apoptotic effect at 50 μM / Apoptotic effect at 100 μM: 72 h, HeLa-C3 cells, YFP/CFP emission ratio
Method: The bioassay method was described in our previous paper with some modifications. All the testing samples were dissolved in DMSO to make stock solutions. The concentration of each stock was at least 1000 times higher than the working concentration. HeLa-C3 cells, which allows detection of apoptotic cell death involving caspase activation, were cultured in minimum essential medium (MEM) containing 10% fetal bovine serum, 100 U/mL penicillin, […] streptomycin, in a 5% CO2 humidity incubator at 37° C. The sample well for apoptotic activity testing was prepared by seeding a well on a 96-well plate with 7500 HeLa-C3 cells suspended in 100 μL culture medium. After 12-16 h incubation, the old medium was removed and 100 μL freshly prepared culture medium containing the testing sample at a certain working concentration was added to both the sample well and the corresponding background well. Culture medium containing 0.1% DMSO was the negative control while 500 nM paclitaxel was the positive control. After that, the plate was read repeatedly by a Perkin-Elmer Victor reader with excitation wavelength at 440±10 nm and emission wavelength at 486±8 nm for CFP (cyan fluorescent protein) and 535±8 nm for YFP (yellow fluorescent protein) at indicated time points. The data acquisition duration was up to 72 h. The YFP/CFP emission ratio was then calculated. The background fluorescence was measured from the wells containing only medium. After subtracting the background fluorescence from the recorded signal, net YFP and CFP readings were obtained. In this paper, Y/C emission ratio is used to represent the effect of FRET, which is equal to the net YFP reading divided by the net CFP reading from the same well. If YFP/CFP emission ratio was reduced below 3, the testing sample was considered as a good apoptotic inducer at that concentration. All samples were tested in triplicate. The whole experiment was repeated for three times.
The biological activity of these new compounds was evaluated for apoptosis inducing effects using genetically engineered HeLa-C3 cells that can produce a fluorescent biosensor capable of detecting caspase-3 activation. These cells emit a green light under normal growth conditions and change to a blue light when caspase-3 is activated during apoptosis to cleave the sensor protein inside the cells. This color change allows one to use a fluorescent plate reader to directly detect the activation level of caspase-3 in HeLa-C3 cells during the course of the compound treatment in a noninvasive way. Based on our previous test results, the emission ratio of YFP (yellow fluorescent protein)/CFP (cyanfluorescent proteins) is usually between 6 and 8 in normal cells, and this ratio will decrease to a value below 3 if a compound can activate caspase-3 and kill cancer cells. Therefore, any compound that can reduce the YFP/CFP emission ratio to a value below 3 is considered positive in activating apoptosis.

HeLa cells = test: MTT assay, cell growth inhibition on HeLa cells; details: 72 h
Method: The measurement of the IC50 was conducted on the isolated compounds using MTT assay. MIT powder was dissolved in PBS at a concentration of 5 mg/mL. For MTT assay, 10 μL of MTT solution was added into each well of a 96-well plate. After 2 h incubation at 37° C., 100 μL 10% SDS solution with 0.01 M HCl was added to dissolve the purple crystals. After 24 h incubation, the optical density (OD) readings at 595 nm were measured using a plate reader. Firstly, 2,500 HeLa cells suspended in 100 μL MEM medium were seeded respectively in a 96-well plate. After 24 h incubation, fresh medium contains various concentrations of each compound were added into the 96-well plate and changed the old medium. The concentrations applied except compound 1 which was from 200 μM to 3.125 μM were ranged from 100 μM to 1.5625 μM, which was achieved by doing two-fold dilutions for 6 times. The OD values of the control group at 0 h and 72 h together with the compound treated groups at 72 h from the MTT assay were measured using a plate reader. IC50 is the concentration of a compound inhibiting 50% of the cell growth.

SMILES	Cell morphology (HeLa-C3 cells [1]; 500 nM (positive control), 24, 48 and 72 h)	Apoptotic effect at 10 μM (HeLa-C3 cells [2])	Apoptotic effect at 25 μM (HeLa-C3 cells [2])	Apoptotic effect at 50 μM (HeLa-C3 cells [2])	Apoptotic effect at 100 μM (HeLa-C3 cells [2])	caspase-3 activation in HeLa-C3 cells (HeLa-C3 cells [2]; within 72 h at 25 μM)	Cell morphology (HeLa-C3 cells [1]; 25 μM, 24, 48 and 72 h)	IC50 (HeLa cells) [µM]	IC50 (HeLa cells; Homo sapiens, HeLa) [µM]
CC(=O)O[C@H]1C(=O)[C@@]2(C)[C@H]([C@H](OC(=O)c3ccccc3)[C@]3(O)C[C@H](OC(=O)[C@H](O)[C@@H](NC(=O)c4ccccc4)c4ccccc4)C(C)=C1C3(C)C)[C@]1(OC(C)=O)CO[C@@H]1C[C@@H]2O [paclitaxel, reference compound]	shrinkage and detached morphology	–	–	–	–	–	–	–	–
COC(=O)c1c(O)cc(O)cc1Oc1c(O)c(OC)cc(CC=C(C)C)c1OC [Compound 2, Paucinervin B]	–	− (“−” means the YFP/CFP emission ratio of compound treated HeLa-C3 cells was above 3 at 72 h)	+ (“+” means the YFP/CFP emission ratio of compound treated HeLa-C3 cells was below 3 at 72 h)	+ (“+” means the YFP/CFP emission ratio of compound treated HeLa-C3 cells was below 3 at 72 h)	+ (“+” means the YFP/CFP emission ratio of compound treated HeLa-C3 cells was below 3 at 72 h)	could activate caspase-3	shrinkage and detached morphology	9.5 ± 0.2	< 10
COc1c(O)c(CC=C(C)C)cc2c1Oc1cc(O)c(CC=C(C)C)c(O)c1C(=O)O2 [Compound 1, Paucinervin A]	–	− (“−” means the YFP/CFP emission ratio of compound treated HeLa-C3 cells was above 3 at 72 h)	− (“−” means the YFP/CFP emission ratio of compound treated HeLa-C3 cells was above 3 at 72 h)	− (“−” means the YFP/CFP emission ratio of compound treated HeLa-C3 cells was above 3 at 72 h)	+ (“+” means the YFP/CFP emission ratio of compound treated HeLa-C3 cells was below 3 at 72 h)	–	–	95.6 ± 5.5	–
